In US10391081B2, “FGFR gatekeeper mutant gene and drug targeting same” (CHUGAI SEIYAKU KABUSHIKI KAISHA, priority 2013, dated 2019):

Target: T1, TEL-fused FGFR2 V564F mutant polypeptide (Homo sapiens, UniProt P21802, V564F)
T1 construct: expressed in transfected cells; for A6/A7 grown as subcutaneous tumours in BALB/c nude mice
Assay: In vitro cell proliferation inhibition (WST-8), Ba/F3 strain stably expressing TEL-fused FGFR2 V564F mutant
Format: cell-based
Conditions: cultured four days, FIG. 3
Source text: A polynucleotide encoding the dimerization domain of wild-type TEL (SEQ ID NO: 33) and a polynucleotide encoding the intracellular domain of wild-type FGFR2 (SEQ ID NO: 1) were fused by a PCR-based site-directed mutagenesis method to produce a polynucleotide (SEQ ID NO: 11) encoding the TEL-fused wild-type FGFR2 (SEQ ID NO: 34). Using the polynucleotide encoding the TEL-fused wild-type FGFR2 as a template, a polynucleotide (SEQ ID NO: 12) encoding the TEL-fused FGFR2 V564F mutant (SEQ ID NO: 35) was prepared by a PCR-based site-directed mutagenesis method.

T1 sequence (P21802 with tags, fused parts or gaps V564F): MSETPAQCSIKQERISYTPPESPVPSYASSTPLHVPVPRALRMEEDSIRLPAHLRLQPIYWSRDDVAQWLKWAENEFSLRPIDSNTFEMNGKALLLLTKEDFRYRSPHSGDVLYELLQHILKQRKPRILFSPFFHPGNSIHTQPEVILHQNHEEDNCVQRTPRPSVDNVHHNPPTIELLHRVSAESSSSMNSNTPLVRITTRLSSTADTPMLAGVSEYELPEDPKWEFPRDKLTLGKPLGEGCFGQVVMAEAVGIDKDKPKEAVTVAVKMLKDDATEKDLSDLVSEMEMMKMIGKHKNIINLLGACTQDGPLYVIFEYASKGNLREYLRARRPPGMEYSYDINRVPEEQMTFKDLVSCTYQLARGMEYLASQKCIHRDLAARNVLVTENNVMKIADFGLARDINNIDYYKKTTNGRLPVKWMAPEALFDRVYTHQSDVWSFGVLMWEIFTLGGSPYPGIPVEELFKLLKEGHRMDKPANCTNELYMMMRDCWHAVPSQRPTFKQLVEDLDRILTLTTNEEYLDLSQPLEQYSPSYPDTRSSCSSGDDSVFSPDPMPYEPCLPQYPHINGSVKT

| cell proliferation-inhibiting activity compared to the strain stably expressing TEL-fused wild-type FGFR2 | SMILES |
| --- | --- |
| greatly weakened | CCN1CCN(c2ccc(Nc3cc(N(C)C(=O)Nc4c(Cl)c(OC)cc(OC)c4Cl)ncn3)cc2)CC1 [Compound D, BGJ-398] |
| greatly weakened | COc1cc2c(Oc3ccc4[nH]c(C)cc4c3F)ncnc2cc1OCCCN1CCCC1 [E, cediranib] |
